Reference: patent publication US20060074084A1, “Inhibitors of soluble adenylate cyclase” (priority 2004, published 2006)
≈ marks a conversion by molar mass, not a printed value. Where two headings read alike, the source gives them in different places.

Tests used:
[1] = target: soluble, sperm-specific adenylate cyclase (sAC) (Homo sapiens, UniProt Q96PN6); assay: sAC-Assay (enzyme test, HTRF cAMP detection); format: biochemical
Excerpt: In a suitable buffer system, the soluble, sperm-specific adenylate cyclase catalyzes the reaction of adenosine triphosphate (ATP) to cyclic adenosine monophosphate (cAMP) and pyrophosphate. Free cAMP that is generated in this way is then used in a competitive detection process, in which the binding of a europium kryptate (Eu[K])-labeled anti-cAMP antibody (anti cAMP-Eu[K]-AK) to a cAMP-molecule-labeled, modified allophycocyanine-1 molecule (cAMP-XL665) is prevented. In the absence of exogenic cAMP, after excitation at 335 nm, it results in a fluorescence resonance energy transfer (FRET) between the anti cAMP-Eu[K]-AK (FRET-donor) and the cAMP-XL665 molecule (FRET-acceptor). This process is quantified at different times (time-resolved) based on the emission of FRET-acceptor XL665 (665 nm and 620 nm). A signal drop (measured as a wave ratio; calculation formula: [(E665 nm/E620 nm)×10000]) can be attributed to the presence of cAMP and thus to the activity of sAC.
First, 1.5 μl of the test substance (in 30% DMSO), only 30% DMSO in the solvent controls, is introduced per recess in a 384-hole test plate (polystyrene; 384, NV). Then, 10 μl of a dilute sAC enzyme solution is recovered (enzyme stock solution in 300 mmol of NaCl, 10% glycerol; pH 7.6; intermediate and final enzyme dilution a) 1:10 and b) 1:2000 in each case in: 1.0 mmol of MnCl2; 0.2% BSA; 50 mmol of tris, pH 7.5 in H2O). The enzyme reaction is started by adding 5 μl of the ATP-substrate solution (200 μmol of ATP in H2O) and is completed after incubation (25 minutes at room temperature) by the addition of 5 μl of stop solution (200 μmol of EDTA in PBS).
Then, 8 μl of detection solution 1 is introduced into a recess of the 384-hole measuring plate (measuring plate: polystyrene; 384, SV—black; detection solution 1:50 μl of cAMP-XL665; 950 μl of reconstitution buffer; 2200 [[…] of PBS; cAMP-XL665: production by the addition of 5 ml of H2O to the freeze-dried product as specified by Cis Bio Kit: #62AMPPEC instructions; storage: aliquoted at −80° C.). Then, 3 μl from the 91.5 μl is added to the corresponding recess of the test plate. Finally, the addition of 8 μl of detection solution 2 (detection solution 2: 50 μl of anti cAMP-Eu[K]-AK; 950 μl of reconstitution buffer; 2200 μl of PBS; anti cAMP-Eu[K]-AK: production as specified by Cis Bio Kit: #62AMPPEC instructions; storage: aliquoted at −80° C.) is carried out.
After an additional incubation of 90 minutes at room temperature, the HTRF result is measured either on the Packard Discovery or with the RubiStar HTRF measuring device (Delay: 50 μs; Integration time: 400 μs).

[2] = Solubility; format: physicochemical
[3] = comparison with known compounds in the enzyme test
[4] = Biological Data table, read-out: Solubility

Chain of soluble, sperm-specific adenylate cyclase (sAC) (Q96PN6 whole entry): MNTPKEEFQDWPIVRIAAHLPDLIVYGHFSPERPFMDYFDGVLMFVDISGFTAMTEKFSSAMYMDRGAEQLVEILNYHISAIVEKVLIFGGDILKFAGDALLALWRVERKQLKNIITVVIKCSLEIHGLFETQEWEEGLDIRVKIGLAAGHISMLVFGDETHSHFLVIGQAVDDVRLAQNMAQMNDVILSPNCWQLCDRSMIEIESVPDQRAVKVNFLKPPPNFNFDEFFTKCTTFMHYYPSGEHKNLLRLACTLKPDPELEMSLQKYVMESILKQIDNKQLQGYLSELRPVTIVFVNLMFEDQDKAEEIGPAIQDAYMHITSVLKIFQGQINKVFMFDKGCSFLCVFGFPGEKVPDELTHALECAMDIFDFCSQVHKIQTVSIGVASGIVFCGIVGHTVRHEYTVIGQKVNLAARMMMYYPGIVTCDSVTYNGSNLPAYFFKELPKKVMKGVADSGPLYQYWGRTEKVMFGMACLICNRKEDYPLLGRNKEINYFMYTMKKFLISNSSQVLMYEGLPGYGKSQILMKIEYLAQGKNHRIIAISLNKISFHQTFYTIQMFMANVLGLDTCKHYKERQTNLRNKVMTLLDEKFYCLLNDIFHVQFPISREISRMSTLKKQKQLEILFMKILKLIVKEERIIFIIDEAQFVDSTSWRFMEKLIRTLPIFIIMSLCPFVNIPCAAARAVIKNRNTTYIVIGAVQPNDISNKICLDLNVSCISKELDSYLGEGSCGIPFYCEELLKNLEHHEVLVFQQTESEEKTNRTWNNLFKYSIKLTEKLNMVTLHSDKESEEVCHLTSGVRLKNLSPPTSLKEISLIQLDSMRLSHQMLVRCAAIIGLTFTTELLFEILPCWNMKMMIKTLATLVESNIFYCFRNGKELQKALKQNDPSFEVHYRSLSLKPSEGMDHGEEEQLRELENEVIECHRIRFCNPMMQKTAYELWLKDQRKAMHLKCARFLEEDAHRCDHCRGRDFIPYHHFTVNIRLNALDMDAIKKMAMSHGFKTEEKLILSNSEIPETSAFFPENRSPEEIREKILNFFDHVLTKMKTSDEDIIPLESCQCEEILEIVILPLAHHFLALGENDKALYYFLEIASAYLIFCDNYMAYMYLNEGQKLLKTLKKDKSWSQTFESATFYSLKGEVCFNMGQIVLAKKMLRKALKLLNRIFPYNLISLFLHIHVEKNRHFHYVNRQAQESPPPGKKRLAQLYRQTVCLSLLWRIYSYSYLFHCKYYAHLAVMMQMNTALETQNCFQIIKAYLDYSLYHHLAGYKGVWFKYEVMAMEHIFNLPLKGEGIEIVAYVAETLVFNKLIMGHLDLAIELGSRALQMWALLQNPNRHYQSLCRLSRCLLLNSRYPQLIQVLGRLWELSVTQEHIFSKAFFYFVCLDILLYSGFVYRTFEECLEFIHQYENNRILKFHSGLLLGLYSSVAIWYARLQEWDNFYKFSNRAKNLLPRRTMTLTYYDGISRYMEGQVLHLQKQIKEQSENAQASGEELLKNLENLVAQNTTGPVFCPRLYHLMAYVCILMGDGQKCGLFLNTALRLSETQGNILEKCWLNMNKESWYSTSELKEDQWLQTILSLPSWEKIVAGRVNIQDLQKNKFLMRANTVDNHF

| solubility [2, 4] | IC50 ([1]; Biological Data table) | solubility ([2]; comparison table) | Compound | IC50 [1, 3] |
| --- | --- | --- | --- | --- |
| – | – | – | C[C@]12CC[C@@H]3c4cc(O)c(O)cc4CC[C@H]3[C@@H]1CC[C@@H]2O [2-OH-Estradiol, reference compound] | 11000 nM |
| – | – | – | C[C@]12CC[C@@H]3c4ccc(O)c(O)c4CC[C@H]3[C@@H]1CC[C@@H]2O [4-OH-Estradiol, reference compound] | 13000 nM |
| 1 µg/mL (≈ 2.05 µM) | 3400 nM | – | CC(C)(C)c1ccc(S(=O)(=O)Nc2ccc3[nH]c(C(=O)NC4CC4)c(-c4ccccc4)c3c2)cc1 [Example 1, 5-(4-tert-Butylbenzenesulfonylamino)-3-phenyl-1H-indole-2-carboxylic acid-cyclopropylamide] | – |
| 1 µg/mL (≈ 1.91 µM) | – | – | CC(C)(C)c1ccc(S(=O)(=O)Nc2ccc3[nH]c(C(=O)Nc4cccnc4)c(-c4ccccc4)c3c2)cc1 [Example 2, 5-(4-tert-Butylbenzenesulfonylamino)-3-phenyl-1H-indole-2-carboxylic acid-pyridin-3-ylamide] | – |
| 1 µg/mL (≈ 1.89 µM) | 2000 nM | – | CC(C)(C)c1ccc(S(=O)(=O)Nc2ccc3[nH]c(C(=O)NC4CCCCC4)c(-c4ccccc4)c3c2)cc1 [Example 3, 5-(4-tert-Butylbenzenesulfonylamino)-3-phenyl-1H-indole-2-carboxylic acid-cyclohexylamide] | – |
| 0.1 µg/mL (≈ 0.193 µM) | – | 0.1 µg/mL (≈ 0.193 µM) | CN(C)CCNC(=O)c1[nH]c2ccc(NS(=O)(=O)c3ccc(C(C)(C)C)cc3)cc2c1-c1ccccc1 [Example 6, 5-(4-tert-Butylbenzenesulfonylamino)-3-phenyl-1H-indole-2-carboxylic acid-(2-dimethylaminoethyl)amide] | – |
| 1.5 µg/mL (≈ 3.06 µM) | 5300 nM | – | CCCNC(=O)c1[nH]c2ccc(NS(=O)(=O)c3ccc(C(C)(C)C)cc3)cc2c1-c1ccccc1 [Example 9, 5-(4-tert-Butylbenzenesulfonylamino)-3-phenyl-1H-indole-2-carboxylic acid propylamide] | – |
| 2.1 µg/mL (≈ 4.06 µM) | – | – | CCCNC(=O)c1[nH]c2ccc(NS(=O)(=O)c3ccc(OC(F)(F)F)cc3)cc2c1-c1ccccc1 [Example 10, 5-(4-(Trifluoromethoxy)benzenesulfonylamino)-3-phenyl-1H-indole-2-carboxylic acid propylamide] | – |
| 4 µg/mL (≈ 7.13 µM) | 150 nM | – | CC(C)(C)c1ccc(S(=O)(=O)Nc2ccc3[nH]c(C(=O)NCCN4CCOCC4)c(-c4ccccc4)c3c2)cc1 [Example 19, 5-(4-tert-Butylbenzenesulfonylamino)-3-phenyl-1H-indole-2-carboxylic acid-(2-morpholin-4-ylethyl)amide] | – |
| – | 2600 nM | – | CN1CCN(NC(=O)c2[nH]c3ccc(NS(=O)(=O)c4ccc(C(C)(C)C)cc4)cc3c2-c2ccccc2)CC1 [Example 20, 5-(4-tert-Butylbenzenesulfonylamino)-3-phenyl-1H-indole-2-carboxylic acid-(4-methylpiperazin-1-yl)amide] | – |
| 0.1 µg/mL (≈ 0.191 µM) | 3400 nM | – | CC(C)(C)c1ccc(S(=O)(=O)Nc2ccc3[nH]c(C(=O)Nc4ccncc4)c(-c4ccccc4)c3c2)cc1 [Example 21, 5-(4-tert-Butylbenzenesulfonylamino)-3-phenyl-1H-indole-2-carboxylic acid-pyrindin-4-ylamide] | – |
| 8 µg/mL (≈ 14.5 µM) | 1600 nM | – | CN(C)CCNC(=O)c1[nH]c2ccc(NS(=O)(=O)c3ccc(C(C)(C)C)cc3)cc2c1-c1ccccc1Cl [Example 24, 5-(4-tert-Butylbenzenesulfonylamino)-3-(2-chlorophenyl)-1H-indole-2-carboxylic acid-(2-dimethylaminoethyl)amide] | – |
| 5 µg/mL (≈ 9.04 µM) | 630 nM | 5 µg/mL (≈ 9.04 µM) | CN(C)CCNC(=O)c1[nH]c2ccc(NS(=O)(=O)c3ccc(C(C)(C)C)cc3)cc2c1-c1cccc(Cl)c1 [Example 25, 5-(4-tert-Butylbenzenesulfonylamino)-3-(3-chlorophenyl)-1H-indole-2-carboxylic acid-(2-dimethylaminoethyl)amide] | 630 nM |
| 3 µg/mL (≈ 5.42 µM) | 9900 nM | – | CN(C)CCNC(=O)c1[nH]c2ccc(NS(=O)(=O)c3ccc(C(C)(C)C)cc3)cc2c1-c1ccc(Cl)cc1 [Example 26, 5-(4-tert-Butylbenzenesulfonylamino)-3-(4-chlorophenyl)-1H-indole-2-carboxylic acid-(2-dimethylaminoethyl)amide] | – |
| 5 µg/mL (≈ 9.39 µM) | 2700 nM | – | Cc1ccccc1-c1c(C(=O)NCCN(C)C)[nH]c2ccc(NS(=O)(=O)c3ccc(C(C)(C)C)cc3)cc12 [Example 28, 5-(4-tert-Butylbenzenesulfonylamino)-3-(2-methylphenyl)-1H-indole-2-carboxylic acid-(2-dimethylaminoethyl)amide] | – |
| 7 µg/mL (≈ 13.1 µM) | 2000 nM | – | Cc1ccc(-c2c(C(=O)NCCN(C)C)[nH]c3ccc(NS(=O)(=O)c4ccc(C(C)(C)C)cc4)cc23)cc1 [Example 29, 5-(4-tert-Butylbenzenesulfonylamino)-3-(4-methylphenyl)-1H-indole-2-carboxylic acid-(2-dimethylaminoethyl)amide] | – |
| 7 µg/mL (≈ 12.8 µM) | 1200 nM | – | COc1ccc(-c2c(C(=O)NCCN(C)C)[nH]c3ccc(NS(=O)(=O)c4ccc(C(C)(C)C)cc4)cc23)cc1 [Example 31, 5-(4-tert-Butylbenzenesulfonylamino)-3-(4-methoxyphenyl)-1H-indole-2-carboxylic acid-(2-dimethylaminoethyl)amide] | – |
| 55 µg/mL (≈ 106 µM) | 1300 nM | – | CN(C)CCNC(=O)c1[nH]c2ccc(NS(=O)(=O)c3ccc(C(C)(C)C)cc3)cc2c1-c1cccnc1 [Example 32, 5-(4-tert-Butylbenzenesulfonylamino)-3-pyridin-3-yl-1H-indole-2-carboxylic acid-(2-dimethylaminoethyl)amide] | – |
| 13 µg/mL (≈ 26.4 µM) | 70 nM | – | CC(C)(C)c1ccc(S(=O)(=O)Nc2ccc3[nH]c(C(=O)NCCO)c(-c4ccccc4)c3c2)cc1 [Example 37, 5-(4-tert-Butylbenzenesulfonylamino)-3-phenyl-1H-indole-2-carboxylic acid-(2-hydroxyethyl)amide] | – |
| 5 µg/mL (≈ 9.4 µM) | 86 nM | 5 µg/mL (≈ 9.4 µM) | CC(C)(C)c1ccc(S(=O)(=O)Nc2ccc3[nH]c(C(=O)NC4CCOCC4)c(-c4ccccc4)c3c2)cc1 [Example 40, 5-(4-tert-Butylbenzenesulfonylamino)-3-phenyl-1H-indole-2-carboxylic acid-(tetrahydropyran-4-yl)amide] | 86 nM |
